Outcome data for 94 compounds are collected here from PubChem BioAssay AID549 (SRMLSC, 2006).

The target in this assay is phosphomevalonate kinase (Streptococcus pneumoniae D39). Nature of the assay: phosphomevalonate kinase inhibition IC50 – biochemical, mevalonate pathway, coupling enzyme counter-screen, dose response (AID 549). The following applies: PMK enzyme, PK/LDH coupled NADH absorbance 340 nm.

Activity calls are given as the source filed them.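 The calls were made as follows: active = clearly stronger inhibition of phosphomevalonate kinase than of the coupling enzymes alone in a parallel counterscreen; inactive = the rest.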

Consider `CCCN1CCN(CCCNC(=O)Cn2nc(-c3ccccc3)ccc2=O)CC1`, for which the result was inactive.

For the compound `Cc1nnc(SCC(=O)Nc2nsc(-c3ccccc3)n2)s1`, the result was inactive. The same measure for `CC1CCN(C(=O)CSc2nc3ccccc3[nH]2)CC1`: “inactive”; for `OC1(CN2CCOCC2)C2CN3CCN(C2)CC1(c1ccccc1)C3` (centres undefined): “inactive”. Take `CC(C)n1nnnc1SCC(=O)Nc1ccccc1N1CCOCC1`: the result was inactive.

On to `Cc1ccc(C(c2nnnn2CC2CCCO2)N2CCN(C(=O)c3ccco3)CC2)cc1` (centres undefined), for which the outcome was inactive. Under `O=C(CCN1C(=O)c2ccccc2C1=O)NC1=NCCS1` stands “inactive”; under `O=C(CN(C(=O)CNS(=O)(=O)c1ccccc1)C1CCCC1)NCc1ccco1`, “inactive”. On to `N#Cc1c(N)sc(=S)c2c1CCN(Cc1ccccc1)C2`, for which the outcome was inactive.

As to `CCOCC(=O)NC1CCSC1=O` (centres undefined), the outcome was inactive. Regarding `COc1ccc(-n2c(SCc3nnc(-c4ccccc4)o3)nnc2-c2ccccc2)cc1`, the result was inactive. Under `CS(=O)(=O)N1CCN(C(=O)CCC2CCCC2)CC1` stands “inactive”; under `COc1cccc2cc(C(=O)N3CCN(c4ccccc4F)CC3)c(=O)oc12`, “inactive”; under `CC(OC(=O)c1cccs1)C(=O)NCC1CCCO1` (centres undefined), “inactive”. `O=C(Cc1cn2ccsc2n1)OCc1nc2ccccc2s1`: the result was inactive. As to `Cn1c2ccccc2c2cnn(CC(=O)N3CCN(c4ncccn4)CC3)c(=O)c21`, the result was inactive. As to `O=C(CCc1nc2ccccc2c(=O)[nH]1)OCC(=O)N1CCN(S(=O)(=O)c2ccccc2)CC1`, the result was inactive.

`COc1ccc2c(c1OC)CN(C)CCc1cc3c(cc1C(O)C2)OCO3` (centres undefined): the outcome was inactive. For `CN1C(=O)OC2(C)CCc3ccccc3C12C` (centres undefined), the result was inactive. As for `CC(C)CN(CC(C)C)S(=O)(=O)N1CCC(C(=O)NC2CCCCCCC2)CC1`, the result was inactive. Under `COc1ccc(N2C(C)=CS/C2=C(/C#N)c2nnc(N3CCOCC3)n2-c2ccccc2)cc1` stands “inactive”; under `COc1cc2nc(C3CCC3)n(NC(=O)C3CCCC(OC)C3)c(=O)c2cc1OC` (centres undefined), “inactive”; under `CC(=O)N1CCN(c2nc3cc4c(cc3nc2NS(=O)(=O)c2ccccc2)OCCO4)CC1`, “inactive”. As for `Cc1n[nH]c(C)c1N1C(=O)c2cccc3c(N4CCCCCC4)ccc(c23)C1=O`, the result was inactive.

For the compound `CCOc1ccc2[nH]c(=O)c(C(c3nnnn3CC3CCCO3)N3CCc4ccccc4C3)cc2c1` (centres undefined), the outcome was inactive.

Take `CCN1C(=O)/C(=C2/Sc3ccc(OC)cc3N2C)SC1=Nc1ccc(C(C)=O)cc1`: the result was inactive. Under `COc1ccc(CNC(=O)C2CCN(S(=O)(=O)N3CCOCC3)CC2)cc1` stands “inactive”. On to `N#CC(C(=O)NC1CCCCC1)c1nc2ccccc2nc1N1CCCCC1` (centres undefined), for which the result was inactive. Turning to `Cc1cc(C)n2c(SCC(=O)N(C)C3CCS(=O)(=O)C3)nnc2n1` (centres undefined), the result was inactive.

As to `COc1ccc(NC2CC(=O)NC2=O)cc1` (centres undefined), the result was inactive. Under `CCOC(=O)c1c(NC(=O)c2cc(C3CC3)on2)sc2c1CCCC2` stands “inactive”; under `COc1ccc(NC(=O)c2ccco2)cc1NC(=O)c1ccc(C)cc1`, “inactive”. Regarding `CON(C)c1nc(OCCNC(=O)OCc2ccc(Cl)cc2Cl)nc(N(C)C)n1`, the outcome was inactive. Consider `CCOC(=O)C1=C(NC(=O)c2ccc(Br)o2)Nc2ccccc2N=C1`, for which the outcome was inactive. Take `CCS(=O)(=O)N1CCC(C(=O)NCCc2ccccc2)CC1`: the result was inactive. Consider `O=C(O)C1=C(C(=O)Nc2ccc(F)c(Cl)c2)CCCC1`, for which the result was inactive. The same measure for `Cc1ccc(-n2c(CSc3nc(C)cc(C)n3)nnc2SCC(=O)NCc2ccco2)cc1`: “inactive”. Consider `CC(C)(C)NS(=O)(=O)c1ccc(NS(=O)(=O)c2ccc(F)cc2)cc1`, for which the result was inactive. Regarding `c1ccc(NC(=NCc2ccco2)c2ccccc2)cc1`, the result was inactive.

For the compound `CCOC(=O)c1c(C)n(C)c2ccc(OC)c(NS(=O)(=O)c3ccc(Cl)s3)c12`, the result was inactive. The same measure for `O=C(NC1CC1)c1ccc2c(c1)ncn2C1CCCC1`: “inactive”.

With `CC1SC(=NC(=O)c2ccco2)NC1=O` (centres undefined), the result was inactive.

Regarding `Cc1cc2c(C(F)(F)F)cc(=O)oc2c2c1NCCC2`, the outcome was inactive. With `CCOc1ccc(Nc2nc(Cc3nnc(SCC(N)=O)o3)cs2)cc1`, the result was inactive. The same measure for `CCCOc1ccc(C2C(=O)N(C3CCCCC3)CC(=O)N2CCCOCC)cc1OC` (centres undefined): “inactive”; for `CCC(Sc1nccn1C)C(=O)Nc1cccc2ccccc12` (centres undefined): “inactive”; for `CCOc1ccc2[nH]c(=O)c(CN(CCO)C(=O)c3ccc(Br)cc3)cc2c1`: “inactive”. With `OC1CCCN(Cc2ccc3c(c2)Cc2ccccc2-3)C1` (centres undefined), the result was inactive. Under `CCOc1ncccc1C(=O)OCc1cc(=O)n2c(n1)sc1ccccc12` stands “inactive”; under `CCCOc1ccc(-c2nnn(CC(=O)Nc3cccc(C(=O)OC)c3)n2)cc1`, “inactive”. The same measure for `O=C(Nc1cccc2ccccc12)c1cnccn1`: “inactive”; for `CC(C)OC(=O)c1cccnc1SCc1cc(=O)n2ccccc2n1`: “inactive”; for `CCC1Oc2ccc(C)cc2N(CC(=O)NCCN2CCCCCC2)C1=O` (centres undefined): “inactive”. `O=C(COC(=O)CCc1c[nH]c(=O)[nH]1)Nc1ccccc1`: the outcome was inactive. The same measure for `O=C(Nn1c(C2CC2)nc2ccccc2c1=O)c1ccco1`: “inactive”; for `CN1CCN(S(=O)(=O)c2cccc(S(=O)(=O)c3ccc(Cl)c(Cl)c3)c2)CC1`: “inactive”.

Consider `CCCCNc1nc2c(c(=O)n(C)c(=O)n2C)n1CCC`, for which the outcome was inactive. Regarding `CCOC(=O)N1CCC(NC(=O)CSc2cc(=O)n(C)c3ccccc23)CC1`, the result was inactive. For `Cc1nc(SC2C=CS(=O)(=O)C2)n[nH]1` (centres undefined), the result was inactive.

Take `CNC(=O)C1CC(=O)N(Cc2ccc3c(c2)OCO3)C(=Nc2ccc(OC)cc2)S1` (centres undefined): the result was inactive.

Take `COc1ccccc1C(c1nnnn1C(C)(C)C)N1CCN(Cc2ccncc2)CC1` (centres undefined): the result was inactive. Under `COC(=O)c1ccccc1S(=O)(=O)N(Cc1cc2ccc(OC)cc2[nH]c1=O)CC1CCCO1` (centres undefined) stands “inactive”; under `CCOC(=O)CCn1c2nc(C)cc(C)c2c(=O)n1-c1ccccc1`, “inactive”. The same measure for `O=c1c[n+]([O-])c2ccccc2n1OCc1c(F)cccc1F`: “inactive”; for `CCNc1nc(NC(C)(C)C)nc(N(C#N)CC)n1`: “inactive”; for `CCOC(=O)C1CCN(C(=O)C2CCN(S(=O)(=O)N3CCCC3)CC2)CC1`: “inactive”. Under `CCOC(=O)N1CCN(C(=O)Cn2nc(-c3ccc(Cl)cc3)ccc2=O)CC1` stands “inactive”; under `Cc1ccc(CN2CCN(C(=O)C3CCC3)CC2)cc1`, “inactive”; under `O=C(O)CCS(=O)(=O)Cc1ccccc1F`, “inactive”. As to `O=C1CC(c2ccccc2)CC(O)=C1C=NCC1CCCO1` (centres undefined), the result was inactive.

In the case of `O=C(NCCCN1CCN(Cc2ccccc2)CC1)C1CCN(S(=O)(=O)N2CCCC2)CC1`, the result was inactive. Take `COC(=O)C(NC(=O)c1ccccc1)=C1C=C(C)OC(C)=C1`: the outcome was inactive.

Turning to `CS(=O)(=O)N1CCCC(C(=O)N2CCOCC2)C1` (centres undefined), the result was inactive. The same measure for `Cn1c(=O)c2c(nc(N3CCOCC3)n2C)n(C)c1=O`: “inactive”; for `O=C(CSc1nnc(COc2ccccc2)n1-c1ccccc1)c1cccs1`: “inactive”. The same measure for `O=C(NCc1ccccc1)C1C2C=CC3(CN(Cc4cccnc4)C(=O)C13)O2` (centres undefined): “inactive”; for `CN1CC(=O)NC1=NC(=O)c1ccc(Cl)c(S(=O)(=O)N2CCCCCC2)c1`: “inactive”. As for `CC12C=CC3(CN(Cc4ccccc4)C(=O)C3C1C(=O)NC1CC1)O2` (centres undefined), the result was inactive. Consider `COc1ccc2c(c1)OC1(C)CC2C(C(=O)c2ccccc2OC)C(=O)N1` (centres undefined), for which the outcome was inactive. Under `CCOC(=O)c1ccccc1NCN1C(=O)CSC1=O` stands “inactive”; under `COc1ccccc1CNC(=O)C1CCN(c2nc3ccccc3o2)CC1`, “inactive”; under `CC1(C)CC(=O)C(C(C2=C(O)CC(C)(C)CC2=O)c2cccc(O)c2)C(=O)C1` (centres undefined), “inactive”. The same measure for `CC(=O)c1ccc(N2CCN(c3ccc(C(F)(F)F)cn3)CC2)cc1`: “inactive”. Consider `Cc1cc(C)n2nc(SCc3cc(=O)n4c(C)cccc4n3)nc2n1`, for which the result was inactive. `O=C(Cn1cc(C(F)(F)F)ccc1=O)N1CCN(S(=O)(=O)c2ccccc2)CC1`: the result was inactive.

For `N=c1n(CCN2CCOCC2)c2ccccc2n1CC(=O)c1ccc(Cl)c(Cl)c1`, the result was inactive. The same measure for `C=CCn1c(NCc2ccccc2)nc2ccccc21`: “inactive”; for `Cc1nc(NC(=O)c2ccco2)sc1C(=O)Nc1ccc(Br)cc1`: “inactive”. Under `CCn1c(SCC(=O)c2[nH]c(C)c(C(C)=O)c2C)nnc1-c1cccs1` stands “inactive”; under `CCOC(=O)C1=C(N)OC2=C(C(=O)CCC2)C1c1ccc(C)s1` (centres undefined), “inactive”; under `CC(C)(C)NC(=O)CSc1ncnc2c1nnn2Cc1ccccc1Cl`, “inactive”. Consider `Cc1c2c(nc3c(C(=O)NC4CCCCC4C)cnn13)CCCC2` (centres undefined), for which the outcome was inactive. The same measure for `COc1ccc(C(=O)Nc2ccccc2C(=O)NC(C(=O)NCc2ccco2)C(C)C)cc1` (centres undefined): “inactive”; for `CCOc1cc(C#N)c(NC(=O)c2cccnc2)cc1OCC`: “inactive”.
